Measurements as given in patent US7214668B2, “Phosphonic acid based prodrugs of PMEA and its analogues” (Metabasis Therapeutics, Inc., priority 2002, dated 2007).
“And” between values parts separate entries of the source, which are not always exact repeats. Equal entries are not always repeated.

Assays:
[1] = test system: liver microsomes isolated from rats induced with dexamethasone; assay: In vitro activation of PMEA prodrug analogues to PMEA by rat liver microsomes; conditions: 1 mg/mL microsomes, 2 mM NADPH, 5 minutes, 37° C., PMEA formation
Method: PMEA prodrug analogues were tested for activation to PMEA in reactions catalyzed by the microsomal fraction of rat liver.
Prodrugs (25 and 250 μM) were tested for activation by liver microsomes isolated from rats induced with dexamethasone to enhance CYP3A4 activity (Human Biologics Inc., Phoenix Ariz.). Reactions were conducted in 0.1 M KH2PO4, pH 7.4, in the presence of 2 mM NADPH and liver microsomes (1 mg/mL). Reaction mixtures were incubated for 5 minutes in an Eppendorf Thermomixer 5436 (37° C., speed 6). Reactions were terminated by the addition of 1.5 volumes of methanol. The resulting extracts were clarified by centrifugation at 14,000 rpm in an Eppendorf microfuge (20 minutes). The supernatants (200 μL) were evaporated under vacuum and heat to dryness before resuspending in 80 μL of buffer A (see below) for PMEA analysis. Spiked standards of 9-[2-(phosophonomethoxy)ethyl]adenine, (PMEA, lot 980397, Metabasis Therapeutics) were prepared in the same reaction mixture and processed in an identical fashion. After resuspension, samples were analyzed by reverse phase HPLC (Altima C-18 column) with use of an ion-pairing buffer (Buffer A) consisting of 10 mM ammonium phosphate, 2.5 mM octyltriethylammonium phosphate, pH 5.5. Samples were loaded in Buffer A and eluted with a methanol gradient from 40% to 80% over 20 minutes. Detection was at 265 nm.

[2] = PMEApp accumulation in liver organ following oral administration to normal fasted rats; assay type: in vivo, rat; conditions: 30 mg/kg PMEA equivalents p.o.
Method: PMEA prodrugs were tested in vivo to identify prodrugs with suitable oral bioavailability and favorable intrahepatic activation rates.
Following oral administration of 30-mg/kg prodrug (PMEA equivalents) to normal, fasted rats, liver organ samples were freeze-clamped at 8 hr. […] The retention time of PMEApp was 18.6 minutes.

human liver microsomes [3] = assay: Kinetics of activation of Compound 4 to PMEA by human liver microsomes; assay type: in vitro ADME; conditions: 2 mg/mL human liver microsomes, 10 minutes, 37° C.
Method: The kinetics of activation of Compound 4 by the microsomal fraction of human liver were determined.
Human liver microsomes were purchased from In Vitro Technologies (IVT). Lot 1011 was prepared from a pool of 10 male donors with documented CYP3A4 activity (testosterone 6β-hydroxylation rate of 5.7 nmol/mg/min; IVT). […] Following a 2-minute preincubation at 37° C., reaction mixtures containing 100 mM KH2PO4, 2 mg/mL human liver microsomes, and 0, 30, 60, 100, 200 and 400 μM Compound 4 were started by addition of NADPH to 2 mM. The reaction was carried out for 10 minutes in an Eppendorf Thermomixer 5436 at 37° C., speed 6. […] Reactions were terminated by the addition of 1.5 volumes of methanol and extracts were pelleted at 14,000 rpm in an Eppendorf microfuge for 20 minutes. The supernatants (200 μl) were evaporated under vacuum and heat to dryness before resuspending in 80 μL buffer A (see below). Spiked standards of 9-[2-(phosophonomethoxy)ethyl]adenine, (PMEA, lot 980397, Metabasis Therapeutics) were prepared in the reaction mixture, and quenched and processed in an identical fashion. The ion-pairing buffer (Buffer A) consisted of 10 mM ammonium phosphate and 2.5 mM octyltriethylammonium phosphate, pH 5.5. After resuspension, samples were analyzed for PMEA by reverse phase HPLC. […]

human liver microsomes [4] = assay: In vitro activation of enantiomers in human liver microsomes (glutathione by-product capture); assay type: in vitro ADME; conditions: 2 mg/mL human liver microsomes, glutathione adduct of by-product quantified
Method: The two enantiomers were compared for activation in human liver microsomes.
Human liver microsomes were purchased from In Vitro Technologies (IVT1032). […] The reactions were initiated by addition of NADPH following a 2-minute preincubation. Reactions were quenched with 60% methanol at 0, 2.5, 5, and 7.5 minutes. L-Glutamyl-L-(S-(3-oxo-3-(3-chlorophenyl)propyl)cysteinylglycine, a glutathione adduct of the by-product of prodrug activation, 3-Cl-phenyl vinyl ketone, was quantified following extraction of the reaction with 1.5 volumes of methanol. The extracted samples were centrifuged at 14,000 rpm in an Eppendorf microfuge and the supernatant analyzed by HPLC for L-Glutamyl-L-(S-(3-oxo-3-(3-chlorophenyl)propyl)cysteinylglycine content. Spiked L-Glutamyl-L-(S-(3-oxo-3-(3-chlorophenyl)propyl)cysteinylglycine (lot 20000127) standards (1–30 μM) were prepared in 2 mg/ml microsomes under reaction conditions and then quenched and processed in an identical fashion to unknown samples. For HPLC analysis, the loading mobile phase buffer (Buffer A) consisted of a 9:1 ratio (v/v) of 20 mM potassium phosphate, pH 6.2 and acetonitrile. Extract (100 uL) was injected onto a Beckman Ultrasphere ODS column (4.6×250 […], part#235329). […] The elution of L-Glutamyl-L-(S-(3-oxo-3-(3-chlorophenyl)propyl)cysteinylglycine (retention time 10.4 minutes) was monitored at 245 nm.

[5] = test system: freshly isolated rat hepatocytes; assay: Hepatotoxicity parameters in isolated normal and dexamethasone-induced rat hepatocytes
Method: Normal fed Sprague-Dawley rats weighing 280–310 g were administered dexamethasone intraperitoneally at 50 mg/kg once a day for four days. Dexamethasone was purchased from Sigma (lot#119H1328) and formulated as a suspension in corn oil (Sigma lot#107H1649) at 50 mg/mL. On the fifth day rats were used for hepatocyte isolations. […] Effects on glutathione levels were assessed by the DTNB (Ellman's reagent) method and viability was determined by the trypan blue exclusion assay and hepatic enzyme leakage assays (LDH, AST). […] Both assays were adapted from the protocol insert for a test tube assay to a microtiter plate assay.

[6] = Tissue distribution of PMEA equivalents after oral tritiated Compound 4 and bis POM PMEA in rats
Method: Total tritium counts were analyzed in solubilized samples of liver organ, kidney, plasma, urine, red blood cells, small intestine, as well as small intestine contents and feces obtained at various time points over 24 hours. Liver organ specificity was assessed by comparison of the temporal profiles of total tritium in liver organ versus kidney, small intestine, plasma, and red blood cells. Metabolite profiles in perchloric acid extracts of liver organ, kidney, small intestine, feces and urine were analyzed by HPLC.

[7] = 1 mM Compound 4, normal rat hepatocytes

## Nc1ncnc2c1ncn2CCOCP1(=O)OCCC(c2cccc(Cl)c2)O1 (racemic) [Compound 4]
[1]; 25 μM prodrug
  Activation Rate, Dex. Rat Liver Microsomes, 25 μM: 6.2 nmol/min/mg
[1]; 250 μM prodrug
  Activation Rate, Dex. Rat Liver Microsomes, 250 μM: 10.9 nmol/min/mg
[2]
  Rats, PMEApp levels in liver organ @ 8 hr., 30 mg/kg, p.o.: 6.6 nmol/g
Human liver microsomes [3]
  Km: 11 µM
Human liver microsomes [4]; 25 μM
  Activation (25 μM): 38 pmol/mg/min
Human liver microsomes [4]; 250 μM
  Activation (250 μM): 283 pmol/mg/min
[5]; 250 μM and 1 mM, hepatocytes from dexamethasone pre-treated rats
  Viability or hepatic enzyme leakage following glutathione depletion: no significant changes
[5]; 250 μM, hepatocytes from dexamethasone pre-treated rats, 2-hour incubation
  Glutathione reduction, 250 μM: 50%
[5]; [7]
  Glutathione levels, normal hepatocytes: no significant decrease
  Viability or hepatic enzyme leakage, normal hepatocytes: no significant changes
[5]; 1 mM, hepatocytes from dexamethasone pre-treated rats, 2-hour incubation
  Glutathione reduction, 1 mM: > 95%
[6]; 30 mg/kg PMEA equivalents p.o.
  Compound 4/bisPOM PMEA (fold difference), Kidney: 0.26 fold
  Compound 4/bisPOM PMEA (fold difference), Liver organ: 3.1 fold and 3.11 fold
  Compound 4/bisPOM PMEA (fold difference), Small Intestine: 0.04 fold
  Fold decrease of exposure of PMEA equivalents in kidney relative to bis POM PMEA: 3.8 fold
  Fold decrease of exposure of PMEA equivalents in small intestine relative to bis POM PMEA: 25 fold
[6]; after 24 hours, p.o.
  Dose found as intact prodrug in feces: ~60%
